Source: the NIST ThermoML archive (doi:10.1021/je060116w)
Numbers after ± are expanded uncertainties.

Conditions: Hot wire method

FC(F)CC(F)(F)F [1,1,1,3,3-pentafluoropropane]
Liquid
Conditions | thermal conductivity [W/m/K]
244.4 K | 0.1044 ± 0.0021
244.64 K | 0.1043 ± 0.0021
244.9 K | 0.1041 ± 0.0021
254.41 K | 0.1014 ± 0.0021
254.67 K | 0.1014 ± 0.0021
254.94 K | 0.1013 ± 0.0021
264.37 K | 0.09835 ± 0.002
264.64 K | 0.0982 ± 0.002
264.91 K | 0.0981 ± 0.002
274.38 K | 0.09519 ± 0.0019
274.66 K | 0.09525 ± 0.0019
274.94 K | 0.09497 ± 0.0019
284.51 K | 0.09219 ± 0.0019
284.8 K | 0.09211 ± 0.0019
285.08 K | 0.09178 ± 0.0019
294.42 K | 0.08894 ± 0.0018
294.67 K | 0.08895 ± 0.0018
294.99 K | 0.08862 ± 0.0018
304.46 K | 0.08598 ± 0.0018
304.72 K | 0.08564 ± 0.0018
305.08 K | 0.08542 ± 0.0018
314.17 K | 0.0826 ± 0.0017
314.45 K | 0.08276 ± 0.0017
314.53 K | 0.08259 ± 0.0017
314.76 K | 0.08269 ± 0.0017
314.8 K | 0.08262 ± 0.0017
315.13 K | 0.08252 ± 0.0017
315.17 K | 0.08234 ± 0.0017
324.46 K | 0.0795 ± 0.0016
324.78 K | 0.07945 ± 0.0016
325.15 K | 0.07953 ± 0.0016
334.52 K | 0.07649 ± 0.0016
334.84 K | 0.0765 ± 0.0016
335.21 K | 0.0765 ± 0.0016
344.59 K | 0.07365 ± 0.0015
344.93 K | 0.07351 ± 0.0015
345.31 K | 0.07356 ± 0.0015
354.66 K | 0.07059 ± 0.0014
355 K | 0.07059 ± 0.0014
355.37 K | 0.07058 ± 0.0014
364.67 K | 0.06648 ± 0.0014
365.04 K | 0.06636 ± 0.0014
365.43 K | 0.06604 ± 0.0014
374.69 K | 0.06371 ± 0.0013
375.06 K | 0.0631 ± 0.0013
375.44 K | 0.06262 ± 0.0013
384.7 K | 0.06117 ± 0.0013
385.14 K | 0.0606 ± 0.0013
385.48 K | 0.05985 ± 0.0012
394.71 K | 0.05833 ± 0.0012
395.1 K | 0.05813 ± 0.0012
395.52 K | 0.05783 ± 0.0012
404.77 K | 0.05598 ± 0.0012
405.12 K | 0.05595 ± 0.0012
405.54 K | 0.05564 ± 0.0011
414.79 K | 0.05331 ± 0.0011
415.16 K | 0.05316 ± 0.0011
415.54 K | 0.0529 ± 0.0011

Gas
Conditions | thermal conductivity [W/m/K]
296.14 K, 121.3 kPa | 0.01256 ± 0.00032
297.06 K, 121.3 kPa | 0.01257 ± 0.00032
297.76 K, 121.3 kPa | 0.01267 ± 0.00033
305.45 K, 123.2 kPa | 0.01342 ± 0.00044
305.99 K, 123.2 kPa | 0.01345 ± 0.00035
306.63 K, 123.2 kPa | 0.01352 ± 0.00038
315.24 K, 203.4 kPa | 0.01425 ± 0.00036
315.99 K, 203.4 kPa | 0.01428 ± 0.00036
316.55 K, 203.4 kPa | 0.01435 ± 0.00036
325.29 K, 203.3 kPa | 0.0152 ± 0.00038
326.02 K, 203.3 kPa | 0.01524 ± 0.00038
326.56 K, 203.3 kPa | 0.01527 ± 0.00038
335.28 K, 291.6 kPa | 0.01607 ± 0.0004
335.96 K, 291.6 kPa | 0.0161 ± 0.0004
336.77 K, 291.6 kPa | 0.01611 ± 0.0004
345.15 K, 303 kPa | 0.01704 ± 0.00042
345.77 K, 303 kPa | 0.0171 ± 0.00043
346.5 K, 303 kPa | 0.01714 ± 0.00043
354.97 K, 738.2 kPa | 0.01782 ± 0.00044
355.04 K, 579.7 kPa | 0.01778 ± 0.00044
355.53 K, 738.2 kPa | 0.01786 ± 0.00044
355.63 K, 579.7 kPa | 0.01782 ± 0.00044
356.17 K, 738.2 kPa | 0.0179 ± 0.00044
356.29 K, 579.7 kPa | 0.01791 ± 0.00044
364.88 K, 954.5 kPa | 0.01876 ± 0.00046
365.05 K, 617.9 kPa | 0.01865 ± 0.00046
365.4 K, 954.5 kPa | 0.01875 ± 0.00046
365.61 K, 617.9 kPa | 0.01873 ± 0.00046
365.96 K, 954.5 kPa | 0.0189 ± 0.00047
366.24 K, 617.9 kPa | 0.01878 ± 0.00046
374.84 K, 1243 kPa | 0.01982 ± 0.00049
374.99 K, 997 kPa | 0.01966 ± 0.00048
375.13 K, 604.2 kPa | 0.01956 ± 0.00048
375.31 K, 1243 kPa | 0.01995 ± 0.00049
375.48 K, 997 kPa | 0.01969 ± 0.00048
375.71 K, 604.2 kPa | 0.01959 ± 0.00048
375.83 K, 1243 kPa | 0.02001 ± 0.00049
376.05 K, 997 kPa | 0.01976 ± 0.00049
376.31 K, 604.2 kPa | 0.01963 ± 0.00048
384.79 K, 1489.1 kPa | 0.0211 ± 0.00052
385.04 K, 998.9 kPa | 0.02061 ± 0.0005
385.2 K, 598.1 kPa | 0.02052 ± 0.0005
385.21 K, 1489.1 kPa | 0.02101 ± 0.00051
385.55 K, 998.9 kPa | 0.02067 ± 0.00051
385.68 K, 1489.1 kPa | 0.02112 ± 0.00052
385.76 K, 598.1 kPa | 0.02059 ± 0.0005
386.13 K, 998.9 kPa | 0.02072 ± 0.00051
386.35 K, 598.1 kPa | 0.0206 ± 0.0005
394.74 K, 1765.3 kPa | 0.02246 ± 0.00055
394.9 K, 1498.3 kPa | 0.02208 ± 0.00054
395.07 K, 602.5 kPa | 0.02148 ± 0.00052
395.09 K, 1004.6 kPa | 0.02149 ± 0.00052
395.16 K, 1765.3 kPa | 0.02251 ± 0.00055
395.36 K, 1498.3 kPa | 0.02216 ± 0.00054
395.52 K, 1765.3 kPa | 0.02258 ± 0.00055
395.58 K, 602.5 kPa | 0.02153 ± 0.00052
395.6 K, 1004.6 kPa | 0.02161 ± 0.00053
395.75 K, 1498.3 kPa | 0.02218 ± 0.00054
395.94 K, 602.5 kPa | 0.02147 ± 0.00052
396.04 K, 1004.6 kPa | 0.02168 ± 0.00053
404.55 K, 2269.8 kPa | 0.02483 ± 0.0006
404.75 K, 1999.2 kPa | 0.02362 ± 0.00057
404.85 K, 1500.7 kPa | 0.02277 ± 0.00055
404.89 K, 2269.8 kPa | 0.02475 ± 0.0006
405 K, 998.4 kPa | 0.02248 ± 0.00055
405.12 K, 604.3 kPa | 0.02248 ± 0.00055
405.14 K, 1999.2 kPa | 0.02364 ± 0.00057
405.29 K, 2269.8 kPa | 0.02484 ± 0.0006
405.3 K, 1500.7 kPa | 0.02285 ± 0.00056
405.48 K, 998.4 kPa | 0.02253 ± 0.00055
405.55 K, 1999.2 kPa | 0.02369 ± 0.00057
405.62 K, 604.3 kPa | 0.02249 ± 0.00055
405.78 K, 1500.7 kPa | 0.02302 ± 0.00056
406.02 K, 998.4 kPa | 0.0227 ± 0.00055
406.18 K, 604.3 kPa | 0.02253 ± 0.00055
414.76 K, 2496.6 kPa | 0.02664 ± 0.00064
414.88 K, 1998 kPa | 0.02456 ± 0.00059
415.04 K, 995.9 kPa | 0.02342 ± 0.00057
415.04 K, 1502.2 kPa | 0.02374 ± 0.00058
415.15 K, 604.1 kPa | 0.02337 ± 0.00057
415.25 K, 2496.6 kPa | 0.02694 ± 0.00065
415.45 K, 1998 kPa | 0.0246 ± 0.0006
415.64 K, 604.1 kPa | 0.02346 ± 0.00057
415.64 K, 1502.2 kPa | 0.02378 ± 0.00058
415.66 K, 2496.6 kPa | 0.02696 ± 0.00065
415.68 K, 995.9 kPa | 0.02355 ± 0.00057
415.92 K, 1998 kPa | 0.02467 ± 0.0006
416.18 K, 1502.2 kPa | 0.02399 ± 0.00058
416.19 K, 604.1 kPa | 0.02348 ± 0.00057
416.22 K, 995.9 kPa | 0.0236 ± 0.00057
